Data on three compounds can be found in patent US8865891B2, “Optically-detectable enzyme substrates and their method of use” (priority 2004, dated 2014).

One data set addresses TEM-1 β-lactamase (Escherichia coli, UniProt P62593). As to the kind of experiment: Fluorescence from precipitating β-lactamase substrate in 96-well microplate. It counts as biochemical. The method, then: This was diluted 2-fold in methanol to give a working solution of 1 mM. 20 μL of 250 nM TEM-1 β-lactamase was added to the wells of a 96-well microplate. Appropriate volumes of substrate were added to the wells to give final concentrations of 0, 30, 50, 60, 75, 100, 140, 160 and 200 uM after diluting to 100 μL with 100 mM phosphate, 150 mM NaCl (pH7.1). The final β-lactamase concentration was 50 nM. Samples were excited @ 360 nm and fluorescence was measured @ 450 nm, signal was read @ 5, 13, 19, 26, 35, 45, 51 and 65 minutes. Maximum signal was attained after 5 minutes.

In data set [1] the target is β-lactamase-conjugated secondary antibody (Escherichia coli, UniProt P62593). As to the kind of experiment: Fluorogenic sandwich ELISA for prostate specific antigen (PSA). The note with it: 1 μg substrate; fluorogenic assay. The protocol: For the fluorogenic assay, 100 μl/well of a 10 μg/ml solution of anti-prostate specific antigen (PSA) antibody was applied to microplate wells. After incubation and washes, a dilution series of purified PSA was applied, and detection was achieved using 100 μl of a 10 μg/ml of an anti-PSA primary antibody and 100 μl of a 10 μg/ml of a β-lactamase-conjugated secondary antibody in the presence of 1 μg Compound 108 substrate (with appropriate washes between steps). The Z-statistic^1 gives a lower limit of detection of PSA in this assay of 16 pg/ml. For the colorimetric assay, a commercially available kit for the detection of PSA in human serum or plasma was used according to the manufacturers instructions. The assay was performed using the PSA standards provided in the kit. […] The reaction was stopped after 15 minutes using the stop solution provided in the kit and the absorbance was read at 450 nm. […]
β-lactamase-conjugated secondary antibody, sequence (P62593 24-286 limits assumed): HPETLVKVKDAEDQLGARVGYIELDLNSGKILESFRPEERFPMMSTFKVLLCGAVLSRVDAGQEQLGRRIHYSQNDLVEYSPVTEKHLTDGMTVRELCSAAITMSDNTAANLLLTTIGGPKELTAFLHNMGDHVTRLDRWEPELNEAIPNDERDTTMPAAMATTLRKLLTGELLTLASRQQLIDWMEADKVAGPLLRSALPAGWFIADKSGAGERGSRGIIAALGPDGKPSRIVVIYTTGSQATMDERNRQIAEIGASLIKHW
Optimal concentrations for use in ELISA-format assays was determined experimentally using a model sandwich ELISA to detect human Prostate Specific Antigen (PSA). […] The PSA standards were detected with a polyclonal rabbit anti-PSA antibody, then a secondary conjugate of goat anti-rabbit TEM-1. Plates were developed by addition of a β-lactamase substrate solution to drained wells, then measurement of fluorescence on the Tecan Safire fluorescence plate reader.
For orientation: ELISA stands for enzyme-linked immunosorbent assay.

Data set [2] in a line: pH range, hydrolysis rate: background fluorescence of substrate in buffers without enzyme. Format: physicochemical. The note with it: for increase in fluorescence due to hydrolysis (percentage of maximum fluorescence): 1 μg/mL, over 250 min; for time to complete hydrolysis: assumes a constant rate of hydrolysis. The protocol:
Compound 108 was prepared at a concentration of 1 μg/ml in three different buffers: MES at pH 5.5, PBS at pH 7.2, and Tris at pH 8.0. The substrate solutions were applied to the wells of a microplate, the plate was protected from light, and fluorescence values were gathered at time points from 10-250 minutes. […] Maximum signal was determined by the fluorescence value obtained when 10 μl of a 100 μg/ml solution of β-lactamase was added to control wells. Each point is the mean of 12 replicates. See, Example 32.
Solutions of Compound 108 (1 μg/mL) were prepared in pH 5.5 MES, pH 7.2 PBS, and pH 8.0 Tris-HCl, then added to 16 wells of a 96-well plate. For each pH, high concentrations of TEM-1 were added to 4 wells to obtain a maximum signal (assuming complete cleavage of all substrate). The entire plate was read every 15 min. for 250 min. All fluorescent signals were averaged, then normalized to a percentage of the maximum fluorescence. […] The Tris-HCl samples increased in fluorescence about 7.5% over 250 min., corresponding to complete hydrolysis after about 55 hrs. […] These estimations assume a constant rate of hydrolysis.

The target in another data set is TEM-1 (Escherichia coli, UniProt P62593). The note with it: read-out: Km (μM) difluoro sub., 5 nM TEM-1, PBS, pH 7.2.
TEM-1, sequence (P62593 24-286 limits assumed): as above

Usually Km stands for the substrate concentration at which the rate is half of its maximum.

Read-outs that look alike come from different tables or passages of the source.

TEM-1 β-lactamase, sequence (P62593 24-286 limits assumed): as above

In the case of `O=C(Cc1cccs1)NC1C(=O)N2C(C(=O)O)=C(COc3ccccc3-c3nc4ccccc4c(=O)[nH]3)C[S+]([O-])C12` (stereo not drawn) [Compound 38], the “fluorescence enhancement upon reaction w/β-lactamase” value on TEM-1 β-lactamase (50 nM β-lactamase, excitation 360 nm, emission 450 nm, pH 7.1) is no less than 90 fold. Also, on TEM-1 β-lactamase (50 nM β-lactamase, pH 7.1), the “time at which maximum signal was attained” value was determined as 5 min. The “reaction with β-lactamase in the presence of 40% methanol” value at TEM-1 β-lactamase (40% methanol) is on record as “no reaction occurred”. Moreover, the “signal at high concentrations of substrate” value on TEM-1 β-lactamase (substrate up to 200 uM, presumably due to decreased solubility) is listed as “signal dropped”.

In the case of `O=C(Cc1cccs1)NC1C(=O)N2C(C(=O)O)=C(/C=C/COc3cc4c(cc3F)C3(OC(=O)c5ccccc53)c3cc(F)c(OC/C=C/C5=C(C(=O)O)N6C(=O)C(NC(=O)Cc7cccs7)C6[S+]([O-])C5)cc3O4)C[S+]([O-])C12` (stereo not drawn) [Compound 108], the “lower limit of detection of PSA (Z-statistic)” value in data set [1] came out at 16 pg/mL. Further, in data set [2] (pH 5.5 MES and pH 7.2 PBS), the “increase in fluorescence due to hydrolysis (percentage of maximum fluorescence)” value was “about 3.25%” and the “time to complete hydrolysis” value is reported as “about 128 hrs”. For the same compound, in data set [2] (pH 8.0 Tris-HCl vs MES/PBS), the “hydrolysis rate in pH 8.0 Tris-HCl relative to pH 5.5 MES and pH 7.2 PBS” value is listed as “about double”. Further, in data set [2] (pH 8.0 Tris-HCl), the “increase in fluorescence due to hydrolysis (percentage of maximum fluorescence)” value is given as “about 7.5%” and the “time to complete hydrolysis” value was “about 55 hrs”.

Take `O=C(Cc1cccs1)NC1C(=O)N2C(C(=O)O)=C(C=CCOc3cc4c(cc3F)C3(OC(=O)c5ccccc53)c3cc(F)c(OCC=CC5=C(C(=O)O)N6C(=O)C(NC(=O)Cc7cccs7)C6[S+]([O-])C5)cc3O4)C[S+]([O-])C12` (stereo not drawn) [Compound 108]: the Michaelis constant (Km) was 40 µM on TEM-1 (Lineweaver-Burk plot) and 36 µM at TEM-1 (Scatchard plot).
